Where “and” joins values, the source holds several entries; their conditions need not be identical. Identical values can stand only once.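 Following 48 hours of exposure in 96-well plates, responses at five concentrations were used to interpolate endpoints linearly. At the GI50, growth is halved. TGI denotes the concentration required for complete inhibition of growth.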
Assays:
Test in all cases: NCI tumour cell line growth inhibition, 48 h
KM20L2 colon = test system: KM20L2 colon
DMS 114 small cell lung = test system: DMS 114 small cell lung
DMS 273 small cell lung = test system: DMS 273 small cell lung
XF 498 CNS = test system: XF 498 CNS
DLD-1 colon = test system: DLD-1 colon
SNB-78 CNS = test system: SNB-78 CNS
RXF-631 renal = test system: RXF-631 renal
HOP-18 NSCLC = test system: HOP-18 NSCLC
MDA-N = test system: MDA-N
P388/ADR leukemia = test system: P388/ADR leukemia
SN12K1 renal = test system: SN12K1 renal
P388 leukemia = test system: P388 leukemia

| Compound | TGI (KM20L2 colon) | TGI (DMS 114 small cell lung) | TGI (DMS 273 small cell lung) | TGI (XF 498 CNS) | TGI (DLD-1 colon) | TGI (SNB-78 CNS) | TGI (HOP-18 NSCLC) [µM] | TGI (MDA-N) | also measured |
| --- | --- | --- | --- | --- | --- | --- | --- | --- | --- |
| CSC(=NC(=O)c1ccccc1Cl)SCCSC(=NC(=O)c1ccccc1Cl)SC | > 100 µM | > 100 µM | > 100 µM | > 100 µM | > 100 µM | > 100 µM |  |  |  |
| CC(Oc1ccc2c(-c3ccc(Cl)cc3)cc(=O)oc2c1)C(=O)O (stereo unspecified) | > 100 µM |  |  | > 100 µM | > 100 µM | > 100 µM | > 100 |  | TGI (RXF-631 renal): > 100 µM |
| OC1CC2CCC(C1)N2CCCN1c2ccccc2Sc2ccc(Cl)cc21 (stereo unspecified) |  |  |  |  |  |  |  | 3.62 µM |  |
| O=C(c1c(F)c(F)c(F)c(F)c1F)c1c(F)c(F)c(F)c(F)c1F |  |  |  |  |  |  |  | 3.11 µM |  |
| COc1ccc(C(=O)C2CCC(C(=O)O)C2)cc1 (stereo unspecified) | > 100 µM | > 100 µM | > 100 µM |  | > 100 µM | > 100 µM |  |  |  |
| COc1ccc(C(=O)/C=C/c2ccc(OCCCCCCCCCCOc3ccc(/C=C/C(=O)c4ccc(OC)cc4)cc3)cc2)cc1 |  |  |  |  |  |  |  | > 100 µM |  |
| O=C1c2ccccc2C(=O)N1CCc1ncc(-c2ccccc2)[nH]1 |  |  |  |  |  |  |  | > 100 µM |  |
| Cc1ccc(OP(=O)(Oc2ccc(C)cc2)N2C=Cc3ccccc3C2C#N)cc1 (stereo unspecified) |  |  |  |  |  |  |  | > 100 µM |  |
| [N-]=[N+]=NCN1C(=O)C2C3C=CC(C2C1=O)C1C2C(=O)N(CN=[N+]=[N-])C(=O)C2C31 (stereo unspecified) |  |  |  |  |  |  |  | > 100 µM |  |
| CCC[CH2][Sn](=[O])[CH2]CCC | > 50 µM | > 50 µM | > 50 µM |  | > 50 µM | > 50 µM | > 50 |  | GI50 (KM20L2 colon): > 50 µM; GI50 (DMS 114 small cell lung): > 50 µM; GI50 (DMS 273 small cell lung): > 50 µM; GI50 (DLD-1 colon): > 50 µM; GI50 (SNB-78 CNS): > 50 µM; GI50 (HOP-18 NSCLC): > 50 µM |
| COc1ccc(CC(=O)NCCc2ccc(OC)c(OC)c2OC)cc1 | > 100 µM | > 100 µM |  | > 100 µM | > 100 µM | > 100 µM | > 100 |  | TGI (RXF-631 renal): > 100 µM |
| CC(C)(C)C1=CC(=N/N=c2\scc(-c3ccccc3)n2-c2ccccc2)C=C(C(C)(C)C)C1=O | > 100 µM | > 100 µM | > 100 µM | > 100 µM | > 100 µM | > 100 µM | > 100 |  |  |
| c1ccc(SC(Sc2ccccc2)=C2CCC2)cc1 | > 100 µM | > 100 µM | > 100 µM | > 100 µM | > 100 µM | > 100 µM |  |  | TGI (RXF-631 renal): > 100 µM |
| O=C1c2ccccc2-c2c3c(cc4ccnc1c24)OCO3 | > 100 µM and 60.9 µM | > 100 µM and 32.4 µM | 29.4 µM and 19.2 µM | 21.1 µM and 22.1 µM | 24.7 µM and 27.3 µM | 66.1 µM and > 100 µM | > 100 |  | GI50 (DMS 114 small cell lung): 10.1 µM and 4.87 µM; GI50 (SNB-78 CNS): 14.9 µM and 6.03 µM |
| NC(=S)N1N=C2CCCCCC[C@@H]2[C@H]1c1ccccc1 | > 100 µM | > 100 µM | > 100 µM | 76.5 µM | > 100 µM | > 100 µM |  |  |  |
| COc1ccc(N2C(=O)C3CC(c4ccc(Br)cc4)c4c([nH]c5ccccc45)C3C2=O)cc1 (stereo unspecified) | 27.3 µM | 20.8 µM | 18.2 µM | 32 µM | 23.4 µM | 36.3 µM | 24.8 |  |  |
| Cc1ccc(OCC2CO2)c(Br)c1 (stereo unspecified) |  |  |  |  |  |  |  | 58.9 µM |  |
| O=C1C2CCN(CC2)C1CN1CCOCC1 (stereo unspecified) | 37 µM |  | 25.3 µM | 14.5 µM | 3.18 µM | 56.1 µM | 15.8 | 20.1 µM | TGI (RXF-631 renal): 31 µM |
| NC(=O)c1cc(N2CC2)c([N+](=O)[O-])cc1[N+](=O)[O-] |  |  |  |  |  |  |  | > 200 µM |  |
| CSC(=O)C[C@@]12O[C@@H]([C@@H](C)C3CCC4[C@@H]5C(O)CC6=CC(=O)C=C[C@]6(C)C5CC[C@@]43C)C[C@](C)(O1)C(C)(C)O2 (stereo partly specified) |  | 39.9 µM | 35.9 µM | 28.8 µM |  | 37.6 µM |  |  | TGI (RXF-631 renal): 54.9 µM |

| Compound | TGI (KM20L2 colon) | TGI (DMS 114 small cell lung) | TGI (DMS 273 small cell lung) | TGI (XF 498 CNS) | TGI (DLD-1 colon) | TGI (SNB-78 CNS) | TGI (HOP-18 NSCLC) [µM] | TGI (MDA-N) | also measured |
| --- | --- | --- | --- | --- | --- | --- | --- | --- | --- |
| O=C(O)Cc1cccc2c(=O)cc(-c3ccccc3)oc12 | > 250 µM | 250 µM | > 250 µM | 89.7 µM | > 250 µM | > 250 µM | 250 | 250 µM and > 893 µM | GI50 (MDA-N): 176 µM; TGI (P388/ADR leukemia): 150 µM; TGI (SN12K1 renal): > 250 µM; TGI (P388 leukemia): 250 µM |
| O=C(O)/C=C/c1ccc(Oc2ccccc2C(=O)O)o1 |  |  |  |  |  |  |  | > 10 µM |  |
| Cc1ccc(/C=C/C(=O)c2ccc(Cl)c(Cl)c2)cc1 | > 100 µM |  | > 100 µM | > 100 µM | > 100 µM | > 100 µM | > 100 |  | TGI (RXF-631 renal): > 100 µM |
| CCN(CC)CCN(CC)CC.CCN(CC)CCN(CC)CC.[Cu+2].[Cu+2].[O-][Cl+3]([O-])([O-])[O-].[OH3+].[OH3+] | 61.4 µM | 32.6 µM | > 100 µM |  | > 100 µM | > 100 µM | > 100 |  | GI50 (KM20L2 colon): 23.9 µM; GI50 (DMS 114 small cell lung): 16.6 µM; GI50 (DMS 273 small cell lung): 22 µM; GI50 (DLD-1 colon): 51.9 µM; GI50 (SNB-78 CNS): > 100 µM; GI50 (HOP-18 NSCLC): > 100 µM |
| O=C1Nc2c(Cl)cc(Cl)cc2/C1=N/N=C/c1ccco1 |  |  |  |  |  |  |  | 55.3 µM |  |
| CCOC(=O)C12CCCC1(O)N(NC(=O)OC)C(C)=C2C(=O)OC (stereo unspecified) | > 100 µM | > 100 µM | > 100 µM | > 100 µM | > 100 µM | > 100 µM | > 100 |  | TGI (RXF-631 renal): > 100 µM |
| CC1(C)Oc2ccc3ccc(=O)oc3c2C(O)C1O (stereo unspecified) |  |  |  |  |  |  |  | > 100 µM |  |
| CC(C)(C)C(=O)N1C(C(=O)O)Cc2ccccc2[C@@H]1Cc1ccccc1 (stereo partly specified) | > 100 µM | > 100 µM | > 100 µM | > 100 µM |  | > 100 µM | > 100 |  | TGI (RXF-631 renal): > 100 µM |
| Cc1cccc(-c2nnc3s/c(=C\c4ccc(N(C)C)cc4)c(=O)n23)c1 | > 100 µM |  | > 100 µM | > 100 µM | > 100 µM | > 100 µM | > 100 |  |  |
| CCOC(=O)C1(C(=O)OCC)C(C(C)(C)C)=C(C)c2ccccc21 | 28.2 µM | 26.5 µM | 25.5 µM | 26.3 µM | 26.4 µM |  | 70.2 |  | TGI (RXF-631 renal): 37.9 µM |
| O=c1cc(-c2ccc(F)cc2)[nH]c2ncccc12 |  |  |  |  |  |  |  | 35.9 µM | GI50 (MDA-N): 14.1 µM |
| O=C1CCCCCCC2=C1C(Sc1ccccc1)CC2 (stereo unspecified) | > 100 µM | 76.4 µM | 61.7 µM |  |  | > 100 µM | > 100 |  |  |
| CN(C)CCNc1ccc2ncn3c4ccc(O)cc4c(=O)c1c23 | 12.9 µM | 16.8 µM | 12.4 µM | 17.1 µM | 16.1 µM | 21.4 µM | 49.6 | 15.1 µM |  |
| CC(=O)OCc1c(O)c2c([nH]c1=O)CCc1ccccc1-2 | 263 µM | 155 µM | 159 µM | 104 µM | 162 µM |  | 295 |  | TGI (RXF-631 renal): 149 µM |
| O=[N+]([O-])c1ccc(-c2csc(N=Nc3c(O)[nH]c4ccccc34)n2)cc1 |  |  |  |  |  |  |  | > 100 µM |  |
| Cc1ccc(NCC2(/N=C/c3ccccc3)OC(CO)C(O)C2O)cc1 (stereo unspecified) | 49.4 µM | > 100 µM | > 100 µM | > 100 µM | > 100 µM |  |  |  |  |
| O=S1(=O)c2ccccc2N(O)C2=NCCN21 | > 100 µM | > 100 µM | > 100 µM |  | > 100 µM | > 100 µM |  |  |  |
| CN(C)c1ccc(/C=c2\sc3nnc(-c4ccco4)n3c2=O)cc1 | > 100 µM | > 100 µM | > 100 µM | > 100 µM | > 100 µM | > 100 µM | > 100 |  | TGI (RXF-631 renal): > 100 µM |
| CC(=O)OC12C(C)=C(C)C(=O)N1c1ccccc1N2C(C)=O (stereo unspecified) | > 100 µM |  | > 100 µM | > 100 µM |  | > 100 µM | > 100 |  |  |
